Measurements: paper PMC10905675, “INX-315, a Selective CDK2 Inhibitor, Induces Cell Cycle Arrest and Senescence in Solid Tumors” (Cancer Discovery, 2023)
Like-named read-outs stand apart in the source and are kept apart here.

How the values were obtained:
[1] = tested on: five cell lines with CCNE1 amplification (ovarian cancer); test: CellTiter Glo viability assay; format: cell-based; settings: 144 h
IGF1R = biological target: T1, IGF1R (Homo sapiens, UniProt P08069); test: SelectScreen ZLYTE; format: biochemical; settings: INX-0315 at 100nM
T1 construct: purchased Thermo Fisher Scientific SelectScreen (plus Nanosyn / Reaction Biology for CDK/cyclin lines)
Source text: (§1) INX-315 was first evaluated in the SelectScreen Biochemical Kinase Profiling at Thermo Fisher Scientific (Madison, WI). The primary screen consisted of INX-315 dosed at a single concentration of 100 nmol/L in 1% DMSO across each platform within the SelectScreen array of assays, LanthaScreen Eu Kinase Binding Assay; AdaptaScreen; and Z'LyteScreen using preestablished conditions at Thermo Fisher Scientific as shown in Supplementary Table S2. […] The follow-up screen consisted of 10-point dose–response curves for INX-315 from 1 µmol/L to 0.0495 nmol/L.

PRKCB1 (PKC beta I) = biological target: T2, PRKCB1 (PKC beta I) (Homo sapiens, UniProt P05771); test: SelectScreen ZLYTE; format: biochemical; settings: INX-0315 at 100nM
T2 construct: purchased Thermo Fisher Scientific SelectScreen (plus Nanosyn / Reaction Biology for CDK/cyclin lines)
Source text: as §1

KIT T670I = biological target: T3, KIT T670I (Homo sapiens, UniProt P10721, T670I); test: SelectScreen ZLYTE; format: biochemical; settings: INX-0315 at 100nM
T3 construct: purchased Thermo Fisher Scientific SelectScreen (plus Nanosyn / Reaction Biology for CDK/cyclin lines)
T3 sequence (P10721 26-976 T670I): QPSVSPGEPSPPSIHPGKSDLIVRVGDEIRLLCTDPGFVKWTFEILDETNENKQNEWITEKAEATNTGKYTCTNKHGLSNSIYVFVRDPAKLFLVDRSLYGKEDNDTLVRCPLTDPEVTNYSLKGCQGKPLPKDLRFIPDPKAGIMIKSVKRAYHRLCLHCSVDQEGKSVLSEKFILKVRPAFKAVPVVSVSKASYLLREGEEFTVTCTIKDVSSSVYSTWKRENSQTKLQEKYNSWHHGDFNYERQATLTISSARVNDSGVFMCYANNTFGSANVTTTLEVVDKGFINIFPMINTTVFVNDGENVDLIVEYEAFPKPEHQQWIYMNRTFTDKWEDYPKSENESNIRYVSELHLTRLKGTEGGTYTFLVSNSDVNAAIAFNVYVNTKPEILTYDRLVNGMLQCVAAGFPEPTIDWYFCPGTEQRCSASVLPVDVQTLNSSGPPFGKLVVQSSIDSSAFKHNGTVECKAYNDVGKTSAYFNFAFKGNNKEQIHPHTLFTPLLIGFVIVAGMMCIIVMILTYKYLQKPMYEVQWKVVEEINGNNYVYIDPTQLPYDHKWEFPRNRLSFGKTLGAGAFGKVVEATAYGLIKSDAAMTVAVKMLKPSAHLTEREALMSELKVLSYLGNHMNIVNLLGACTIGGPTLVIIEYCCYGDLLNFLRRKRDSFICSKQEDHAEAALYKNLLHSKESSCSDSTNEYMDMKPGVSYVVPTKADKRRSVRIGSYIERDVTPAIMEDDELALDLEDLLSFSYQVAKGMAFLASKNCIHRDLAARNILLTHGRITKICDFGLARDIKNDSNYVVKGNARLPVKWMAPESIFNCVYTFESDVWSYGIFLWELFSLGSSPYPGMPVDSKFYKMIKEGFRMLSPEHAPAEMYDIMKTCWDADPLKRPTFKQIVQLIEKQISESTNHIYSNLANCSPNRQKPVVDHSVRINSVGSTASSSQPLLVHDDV
Source text: as §1

MAPKAPK3 = biological target: T4, MAPKAPK3 (Homo sapiens, UniProt Q16644); test: SelectScreen ZLYTE; format: biochemical; settings: INX-0315 at 100nM
T4 construct: purchased Thermo Fisher Scientific SelectScreen (plus Nanosyn / Reaction Biology for CDK/cyclin lines)
Source text: as §1

FGR = biological target: T5, FGR (Homo sapiens, UniProt P09769); test: SelectScreen ZLYTE; format: biochemical; settings: INX-0315 at 100nM
T5 construct: purchased Thermo Fisher Scientific SelectScreen (plus Nanosyn / Reaction Biology for CDK/cyclin lines)
Source text: as §1

CDK1/cyclin B = biological target: T6, CDK1/cyclin B (Homo sapiens, UniProt P06493); test: SelectScreen ZLYTE; format: biochemical; settings: INX-0315 at 100nM
T6 construct: purchased Thermo Fisher Scientific SelectScreen (plus Nanosyn / Reaction Biology for CDK/cyclin lines)
T6 sequence (P06493 whole entry): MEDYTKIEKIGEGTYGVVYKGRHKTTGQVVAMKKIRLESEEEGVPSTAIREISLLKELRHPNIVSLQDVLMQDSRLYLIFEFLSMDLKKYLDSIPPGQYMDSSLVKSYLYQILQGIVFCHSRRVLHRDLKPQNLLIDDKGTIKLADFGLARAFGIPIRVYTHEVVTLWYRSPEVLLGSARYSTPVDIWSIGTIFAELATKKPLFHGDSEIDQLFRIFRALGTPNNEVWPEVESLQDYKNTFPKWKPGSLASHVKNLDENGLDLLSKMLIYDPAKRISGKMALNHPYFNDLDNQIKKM
T6 sequence (P14635 whole entry partner): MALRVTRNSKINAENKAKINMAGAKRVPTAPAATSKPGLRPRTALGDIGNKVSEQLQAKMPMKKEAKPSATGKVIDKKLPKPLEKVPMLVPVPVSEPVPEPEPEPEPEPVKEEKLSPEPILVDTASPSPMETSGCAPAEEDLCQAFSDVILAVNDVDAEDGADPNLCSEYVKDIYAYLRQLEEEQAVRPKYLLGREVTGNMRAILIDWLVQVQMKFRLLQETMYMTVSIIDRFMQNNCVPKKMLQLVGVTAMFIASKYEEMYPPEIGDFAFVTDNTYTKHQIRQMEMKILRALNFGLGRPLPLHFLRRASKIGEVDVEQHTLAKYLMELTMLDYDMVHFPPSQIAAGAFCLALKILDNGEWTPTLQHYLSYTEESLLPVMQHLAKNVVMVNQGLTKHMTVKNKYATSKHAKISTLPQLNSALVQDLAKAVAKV
Source text: as §1

FGFR3 K650E = biological target: T7, FGFR3 K650E (Homo sapiens, UniProt P22607, K650E); test: SelectScreen ZLYTE; format: biochemical; settings: INX-0315 at 100nM
T7 construct: purchased Thermo Fisher Scientific SelectScreen (plus Nanosyn / Reaction Biology for CDK/cyclin lines)
Source text: as §1

CSNK1A1L = biological target: T8, CSNK1A1L (Homo sapiens, UniProt Q8N752); test: SelectScreen ZLYTE; format: biochemical; settings: INX-0315 at 100nM
T8 construct: purchased Thermo Fisher Scientific SelectScreen (plus Nanosyn / Reaction Biology for CDK/cyclin lines)
Source text: as §1

TXK = biological target: T9, TXK (Homo sapiens, UniProt P42681); test: SelectScreen ZLYTE; format: biochemical; settings: INX-0315 at 100nM
T9 construct: purchased Thermo Fisher Scientific SelectScreen (plus Nanosyn / Reaction Biology for CDK/cyclin lines)
T9 sequence (P42681 whole entry): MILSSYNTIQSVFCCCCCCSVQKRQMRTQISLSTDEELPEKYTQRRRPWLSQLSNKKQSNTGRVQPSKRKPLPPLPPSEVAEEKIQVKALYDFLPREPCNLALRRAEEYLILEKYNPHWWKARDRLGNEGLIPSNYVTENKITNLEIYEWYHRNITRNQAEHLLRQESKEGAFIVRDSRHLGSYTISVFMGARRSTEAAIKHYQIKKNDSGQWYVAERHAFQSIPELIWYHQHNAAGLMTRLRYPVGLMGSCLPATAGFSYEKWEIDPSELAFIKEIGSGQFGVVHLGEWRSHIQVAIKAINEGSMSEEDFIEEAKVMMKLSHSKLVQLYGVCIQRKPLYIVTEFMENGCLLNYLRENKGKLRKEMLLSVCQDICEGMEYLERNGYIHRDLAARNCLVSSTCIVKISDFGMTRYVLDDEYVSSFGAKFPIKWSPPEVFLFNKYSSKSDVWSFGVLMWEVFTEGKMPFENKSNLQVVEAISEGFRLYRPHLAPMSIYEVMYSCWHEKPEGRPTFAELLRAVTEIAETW
Source text: as §1

BTK = biological target: T10, BTK (Homo sapiens, UniProt Q06187); test: SelectScreen ZLYTE; format: biochemical; settings: INX-0315 at 100nM
T10 construct: purchased Thermo Fisher Scientific SelectScreen (plus Nanosyn / Reaction Biology for CDK/cyclin lines)
Source text: as §1

JAK2 JH1 JH2 V617F = biological target: T11, JAK2 JH1 JH2 V617F (Homo sapiens, UniProt O60674, V617F); test: SelectScreen ZLYTE; format: biochemical; settings: INX-0315 at 100nM
T11 construct: JAK2 JH1 JH2 V617F; purchased Thermo Fisher Scientific SelectScreen (plus Nanosyn / Reaction Biology for CDK/cyclin lines)
Source text: as §1

NEK6 = biological target: T12, NEK6 (Homo sapiens, UniProt Q9HC98); test: SelectScreen ZLYTE; format: biochemical; settings: INX-0315 at 100nM
T12 construct: purchased Thermo Fisher Scientific SelectScreen (plus Nanosyn / Reaction Biology for CDK/cyclin lines)
Source text: as §1

PAK2 (PAK65) = biological target: T13, PAK2 (PAK65) (Homo sapiens, UniProt Q13177); test: SelectScreen ZLYTE; format: biochemical; settings: INX-0315 at 100nM
T13 construct: purchased Thermo Fisher Scientific SelectScreen (plus Nanosyn / Reaction Biology for CDK/cyclin lines)
T13 sequence (Q13177 whole entry): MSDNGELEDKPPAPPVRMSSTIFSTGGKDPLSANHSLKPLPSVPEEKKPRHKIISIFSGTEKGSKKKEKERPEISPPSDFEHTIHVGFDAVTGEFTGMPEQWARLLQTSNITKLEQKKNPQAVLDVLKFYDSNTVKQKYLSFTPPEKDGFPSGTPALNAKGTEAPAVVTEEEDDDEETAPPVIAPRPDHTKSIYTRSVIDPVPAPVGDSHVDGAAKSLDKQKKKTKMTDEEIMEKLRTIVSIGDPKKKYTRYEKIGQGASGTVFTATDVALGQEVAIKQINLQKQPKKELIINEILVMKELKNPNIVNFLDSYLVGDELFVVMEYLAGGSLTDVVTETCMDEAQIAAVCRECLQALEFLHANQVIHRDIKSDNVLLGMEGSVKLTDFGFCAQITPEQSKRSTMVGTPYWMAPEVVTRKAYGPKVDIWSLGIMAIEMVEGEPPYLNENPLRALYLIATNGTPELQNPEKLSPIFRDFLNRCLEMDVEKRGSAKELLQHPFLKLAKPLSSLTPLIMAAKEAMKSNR
Source text: as §1

PTK6 (Brk) = biological target: T14, PTK6 (Brk) (Homo sapiens, UniProt Q13882); test: SelectScreen ZLYTE; format: biochemical; settings: INX-0315 at 100nM
T14 construct: purchased Thermo Fisher Scientific SelectScreen (plus Nanosyn / Reaction Biology for CDK/cyclin lines)
Source text: as §1

CDK17/cyclin Y = biological target: T15, CDK17/cyclin Y (Homo sapiens, UniProt Q00537); test: SelectScreen ZLYTE; format: biochemical; settings: INX-0315 at 100nM
T15 construct: purchased Thermo Fisher Scientific SelectScreen (plus Nanosyn / Reaction Biology for CDK/cyclin lines)
Source text: as §1

EPHB4 = biological target: T16, EPHB4 (Homo sapiens, UniProt P54760); test: SelectScreen ZLYTE; format: biochemical; settings: INX-0315 at 100nM
T16 construct: purchased Thermo Fisher Scientific SelectScreen (plus Nanosyn / Reaction Biology for CDK/cyclin lines)
Source text: as §1

PKN1 (PRK1) = biological target: T17, PKN1 (PRK1) (Homo sapiens, UniProt Q16512); test: SelectScreen ZLYTE; format: biochemical; settings: INX-0315 at 100nM
T17 construct: purchased Thermo Fisher Scientific SelectScreen (plus Nanosyn / Reaction Biology for CDK/cyclin lines)
Source text: as §1

PIM2 = biological target: T18, PIM2 (Homo sapiens, UniProt Q9P1W9); test: SelectScreen ZLYTE; format: biochemical; settings: INX-0315 at 100nM
T18 construct: purchased Thermo Fisher Scientific SelectScreen (plus Nanosyn / Reaction Biology for CDK/cyclin lines)
Source text: as §1

STK3 (MST2) = biological target: T19, STK3 (MST2) (Homo sapiens, UniProt Q13188); test: SelectScreen ZLYTE; format: biochemical; settings: INX-0315 at 100nM
T19 construct: purchased Thermo Fisher Scientific SelectScreen (plus Nanosyn / Reaction Biology for CDK/cyclin lines)
Source text: as §1

LTK (TYK1) = biological target: T20, LTK (TYK1) (Homo sapiens, UniProt P29376); test: SelectScreen ZLYTE; format: biochemical; settings: INX-0315 at 100nM
T20 construct: purchased Thermo Fisher Scientific SelectScreen (plus Nanosyn / Reaction Biology for CDK/cyclin lines)
Source text: as §1

PAK7 (KIAA1264) = biological target: T21, PAK7 (KIAA1264) (Homo sapiens, UniProt Q9P286); test: SelectScreen ZLYTE; format: biochemical; settings: INX-0315 at 100nM
T21 construct: purchased Thermo Fisher Scientific SelectScreen (plus Nanosyn / Reaction Biology for CDK/cyclin lines)
Source text: as §1

HIPK4 = biological target: T22, HIPK4 (Homo sapiens, UniProt Q8NE63); test: SelectScreen ZLYTE; format: biochemical; settings: INX-0315 at 100nM
T22 construct: purchased Thermo Fisher Scientific SelectScreen (plus Nanosyn / Reaction Biology for CDK/cyclin lines)
Source text: as §1

NIM1K = biological target: T23, NIM1K (Homo sapiens, UniProt Q8IY84); test: SelectScreen ZLYTE; format: biochemical; settings: INX-0315 at 100nM
T23 construct: purchased Thermo Fisher Scientific SelectScreen (plus Nanosyn / Reaction Biology for CDK/cyclin lines)
T23 sequence (Q8IY84 whole entry): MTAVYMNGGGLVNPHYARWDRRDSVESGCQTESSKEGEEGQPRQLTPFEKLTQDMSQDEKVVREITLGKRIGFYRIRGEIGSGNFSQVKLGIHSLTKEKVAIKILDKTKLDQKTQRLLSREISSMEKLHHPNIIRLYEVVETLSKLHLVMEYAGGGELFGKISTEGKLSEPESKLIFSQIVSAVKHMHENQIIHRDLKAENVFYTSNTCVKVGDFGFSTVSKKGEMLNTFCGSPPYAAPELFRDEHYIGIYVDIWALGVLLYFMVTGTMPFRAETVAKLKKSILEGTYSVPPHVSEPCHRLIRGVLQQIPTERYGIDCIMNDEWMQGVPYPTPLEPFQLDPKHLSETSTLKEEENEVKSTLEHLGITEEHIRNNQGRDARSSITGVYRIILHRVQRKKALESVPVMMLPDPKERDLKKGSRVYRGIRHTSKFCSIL
Source text: as §1

MAP2K6 (MKK6) = biological target: T24, MAP2K6 (MKK6) (Homo sapiens, UniProt P52564); test: SelectScreen ZLYTE; format: biochemical; settings: INX-0315 at 100nM
T24 construct: purchased Thermo Fisher Scientific SelectScreen (plus Nanosyn / Reaction Biology for CDK/cyclin lines)
T24 sequence (P52564 whole entry): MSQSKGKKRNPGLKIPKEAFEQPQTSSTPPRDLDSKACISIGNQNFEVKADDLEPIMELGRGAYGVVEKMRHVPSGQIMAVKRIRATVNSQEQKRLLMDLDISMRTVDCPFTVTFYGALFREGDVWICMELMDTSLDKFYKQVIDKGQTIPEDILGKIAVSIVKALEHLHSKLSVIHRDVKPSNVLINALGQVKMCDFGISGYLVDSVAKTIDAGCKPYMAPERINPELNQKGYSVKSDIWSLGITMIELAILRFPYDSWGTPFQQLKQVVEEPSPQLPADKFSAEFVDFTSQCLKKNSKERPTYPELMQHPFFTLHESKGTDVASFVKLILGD
Source text: as §1

PIM1 = biological target: T25, PIM1 (Homo sapiens, UniProt P11309); test: SelectScreen ZLYTE; format: biochemical; settings: INX-0315 at 100nM
T25 construct: purchased Thermo Fisher Scientific SelectScreen (plus Nanosyn / Reaction Biology for CDK/cyclin lines)
T25 sequence (P11309 whole entry): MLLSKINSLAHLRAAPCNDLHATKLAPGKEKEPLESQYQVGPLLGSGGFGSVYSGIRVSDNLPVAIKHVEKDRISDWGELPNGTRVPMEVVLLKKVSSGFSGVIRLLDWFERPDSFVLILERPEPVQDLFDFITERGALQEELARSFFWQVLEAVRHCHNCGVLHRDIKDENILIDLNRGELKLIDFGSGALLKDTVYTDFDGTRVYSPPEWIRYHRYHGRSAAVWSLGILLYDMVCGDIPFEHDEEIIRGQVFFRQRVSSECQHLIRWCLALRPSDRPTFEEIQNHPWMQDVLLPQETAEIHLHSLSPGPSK
Source text: as §1

PRKD2 (PKD2) = biological target: T26, PRKD2 (PKD2) (Homo sapiens, UniProt Q9BZL6); test: SelectScreen ZLYTE; format: biochemical; settings: INX-0315 at 100nM
T26 construct: purchased Thermo Fisher Scientific SelectScreen (plus Nanosyn / Reaction Biology for CDK/cyclin lines)
Source text: as §1

RAF1 (cRAF) Y340D Y341D = biological target: T27, RAF1 (cRAF) Y340D Y341D (Homo sapiens, UniProt P04049, Y340D/Y341D); test: SelectScreen ZLYTE; format: biochemical; settings: INX-0315 at 100nM
T27 construct: purchased Thermo Fisher Scientific SelectScreen (plus Nanosyn / Reaction Biology for CDK/cyclin lines)
Source text: as §1

DYRK4 = biological target: T28, DYRK4 (Homo sapiens, UniProt Q9NR20); test: SelectScreen ZLYTE; format: biochemical; settings: INX-0315 at 100nM
T28 construct: purchased Thermo Fisher Scientific SelectScreen (plus Nanosyn / Reaction Biology for CDK/cyclin lines)
Source text: as §1

AURKA (Aurora A) = biological target: T29, AURKA (Aurora A) (Homo sapiens, UniProt O14965); test: SelectScreen ZLYTE; format: biochemical; settings: INX-0315 at 100nM
T29 construct: purchased Thermo Fisher Scientific SelectScreen (plus Nanosyn / Reaction Biology for CDK/cyclin lines)
Source text: as §1

JAK2 = biological target: T30, JAK2 (Homo sapiens, UniProt O60674); test: SelectScreen ZLYTE; format: biochemical; settings: INX-0315 at 100nM
T30 construct: purchased Thermo Fisher Scientific SelectScreen (plus Nanosyn / Reaction Biology for CDK/cyclin lines)
Source text: as §1

SBK1 = biological target: T31, SBK1 (Homo sapiens, UniProt Q52WX2); test: SelectScreen ZLYTE; format: biochemical; settings: INX-0315 at 100nM
T31 construct: purchased Thermo Fisher Scientific SelectScreen (plus Nanosyn / Reaction Biology for CDK/cyclin lines)
Source text: as §1

INSR = biological target: T32, INSR (Homo sapiens, UniProt P06213); test: SelectScreen ZLYTE; format: biochemical; settings: INX-0315 at 100nM
T32 construct: purchased Thermo Fisher Scientific SelectScreen (plus Nanosyn / Reaction Biology for CDK/cyclin lines)
Source text: as §1

EPHB2 = biological target: T33, EPHB2 (Homo sapiens, UniProt P29323); test: SelectScreen ZLYTE; format: biochemical; settings: INX-0315 at 100nM
T33 construct: purchased Thermo Fisher Scientific SelectScreen (plus Nanosyn / Reaction Biology for CDK/cyclin lines)
Source text: as §1

SRMS (Srm) = biological target: T34, SRMS (Srm) (Homo sapiens, UniProt Q9H3Y6); test: SelectScreen ZLYTE; format: biochemical; settings: INX-0315 at 100nM
T34 construct: purchased Thermo Fisher Scientific SelectScreen (plus Nanosyn / Reaction Biology for CDK/cyclin lines)
Source text: as §1

PTK2B (FAK2) = biological target: T35, PTK2B (FAK2) (Homo sapiens, UniProt Q14289); test: SelectScreen ZLYTE; format: biochemical; settings: INX-0315 at 100nM
T35 construct: purchased Thermo Fisher Scientific SelectScreen (plus Nanosyn / Reaction Biology for CDK/cyclin lines)
Source text: as §1

TYK2 = biological target: T36, TYK2 (Homo sapiens, UniProt P29597); test: SelectScreen ZLYTE; format: biochemical; settings: INX-0315 at 100nM
T36 construct: purchased Thermo Fisher Scientific SelectScreen (plus Nanosyn / Reaction Biology for CDK/cyclin lines)
T36 sequence (P29597 whole entry): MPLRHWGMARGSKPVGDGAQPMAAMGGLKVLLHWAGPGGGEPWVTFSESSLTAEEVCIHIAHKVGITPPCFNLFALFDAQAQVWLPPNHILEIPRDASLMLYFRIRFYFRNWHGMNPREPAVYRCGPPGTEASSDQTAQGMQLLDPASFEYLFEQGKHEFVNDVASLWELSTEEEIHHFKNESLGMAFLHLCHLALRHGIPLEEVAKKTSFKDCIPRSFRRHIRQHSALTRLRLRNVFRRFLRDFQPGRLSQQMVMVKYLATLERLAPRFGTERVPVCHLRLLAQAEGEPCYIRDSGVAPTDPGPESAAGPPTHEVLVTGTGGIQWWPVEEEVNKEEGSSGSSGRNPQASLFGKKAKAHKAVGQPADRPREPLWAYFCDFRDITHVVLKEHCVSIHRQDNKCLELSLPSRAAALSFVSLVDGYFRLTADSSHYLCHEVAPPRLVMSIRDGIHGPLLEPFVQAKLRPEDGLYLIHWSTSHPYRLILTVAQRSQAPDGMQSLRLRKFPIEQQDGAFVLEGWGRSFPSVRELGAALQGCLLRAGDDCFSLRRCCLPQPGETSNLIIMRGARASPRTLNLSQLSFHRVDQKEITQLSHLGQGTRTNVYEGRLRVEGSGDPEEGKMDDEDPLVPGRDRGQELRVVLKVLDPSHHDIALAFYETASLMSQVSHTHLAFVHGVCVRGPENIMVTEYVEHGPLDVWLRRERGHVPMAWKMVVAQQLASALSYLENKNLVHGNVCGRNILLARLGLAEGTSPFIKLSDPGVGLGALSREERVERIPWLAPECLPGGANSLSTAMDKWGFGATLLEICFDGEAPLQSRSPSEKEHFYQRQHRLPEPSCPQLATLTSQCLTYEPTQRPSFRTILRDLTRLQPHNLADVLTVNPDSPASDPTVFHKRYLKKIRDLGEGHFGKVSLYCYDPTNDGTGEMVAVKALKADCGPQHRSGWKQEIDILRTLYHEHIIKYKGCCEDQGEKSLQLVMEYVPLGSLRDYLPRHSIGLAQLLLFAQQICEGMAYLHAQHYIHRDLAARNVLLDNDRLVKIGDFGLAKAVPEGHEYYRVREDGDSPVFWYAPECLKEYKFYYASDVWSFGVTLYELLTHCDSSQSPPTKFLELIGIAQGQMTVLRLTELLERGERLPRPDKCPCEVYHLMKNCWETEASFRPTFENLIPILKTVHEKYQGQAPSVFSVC
Source text: as §1

SMILES: NS(=O)(=O)c1ccc(Nc2ncc3cc4n(c3n2)C2(CCCCC2)C(=O)NN4)cc1 [INX-315]
- IC50 ([1]; read-out: cellular IC50): < 100 nM
- IC50 ([1]; read-out: cellular IC50, range): 10 to 64 nM
- inhibition at 0.1 µM (IGF1R): 9%
- inhibition at 0.1 µM (PRKCB1 (PKC beta I)): 12%
- inhibition at 0.1 µM (KIT T670I): 7%
- inhibition at 0.1 µM (MAPKAPK3): 8%
- inhibition at 0.1 µM (FGR): 11%
- inhibition at 0.1 µM (CDK1/cyclin B): 58%
- inhibition at 0.1 µM (FGFR3 K650E): 31%
- inhibition at 0.1 µM (CSNK1A1L): 4%
- inhibition at 0.1 µM (TXK): 7%
- inhibition at 0.1 µM (BTK): 10%
- inhibition at 0.1 µM (JAK2 JH1 JH2 V617F): 39%
- inhibition at 0.1 µM (NEK6): 1%
- inhibition at 0.1 µM (PAK2 (PAK65)): 5%
- inhibition at 0.1 µM (PTK6 (Brk)): -1%
- inhibition at 0.1 µM (CDK17/cyclin Y): 20%
- inhibition at 0.1 µM (EPHB4): 6%
- inhibition at 0.1 µM (PKN1 (PRK1)): 7%
- inhibition at 0.1 µM (PIM2): 5%
- inhibition at 0.1 µM (STK3 (MST2)): 19%
- inhibition at 0.1 µM (LTK (TYK1)): 7%
- inhibition at 0.1 µM (PAK7 (KIAA1264)): 1%
- inhibition at 0.1 µM (HIPK4): 7%
- inhibition at 0.1 µM (NIM1K): 5%
- inhibition at 0.1 µM (MAP2K6 (MKK6)): 3%
- inhibition at 0.1 µM (PIM1): 1%
- inhibition at 0.1 µM (PRKD2 (PKD2)): 5%
- inhibition at 0.1 µM (RAF1 (cRAF) Y340D Y341D): 5%
- inhibition at 0.1 µM (DYRK4): 3%
- inhibition at 0.1 µM (AURKA (Aurora A)): 38%
- inhibition at 0.1 µM (JAK2): 49%
- inhibition at 0.1 µM (SBK1): 5%
- inhibition at 0.1 µM (INSR): 7%
- inhibition at 0.1 µM (EPHB2): 20%
- inhibition at 0.1 µM (SRMS (Srm)): 17%
- inhibition at 0.1 µM (PTK2B (FAK2)): 5%
- inhibition at 0.1 µM (TYK2): 89%
